Results reported in US20050180968A1, “Use of relaxin for stimulating the development of activated human T cells into TH1-like effectors” (priority 2000, published 2005).

What was measured:
CD4+ T cell clone = experiment: Competitive PCR for IFN-? mRNA in a CD4+ T cell clone; assay type: cell-based, human
Description: Competitive PCRfor IFN-?was performed using a competitorcontrol fragment (PCR MIMIC; Clontech Laboratories Inc. Palo Alto, Calif., USA) according to the manufacturer's instructions. PCR MIMIC was used together with sample cDNA in the reaction mixture; sample and control cDNA were amplified with the same primers, so they competed for the same primers in the same reaction, but were distinguished on gel electrophoresis by differences in length. By knowing the amount of PCR MIMIC added to the reaction, the amount of target cDNA and therefore the initial mRNA levels could be determined. Each sample (and competitor fragment) was subjected to 25 cycles of amplification as described above.
The intensity of the bands for ?-actin obtained by RT-PCR was measured in all the samples to confirm that the same quantities of total RNA were reverse transcribed. In addition, the intensity of the bands for IFN-? obtained by PCR amplification (MIMIC and samples) and by Southern blot was also measured. A CCD video camera C3077/01 (Hamamatsu Photonics, Tokyo, Japan) interfaced with an Apple Macintosh personal computer was used. Acquisition of images was obtained with Imagequest IQBase software (Hamamatsu Photonics). Image processing and analysis was performed with the free-share software IMAGE (National Institutes of Health, Research Services, Branch NIMH, version 1.28).

PSS patients = settings: cited from earlier work
[1] = test system: established CD4+ T cell clones (Th0-like); experiment: Cytokine production (ELISA) by established CD4+ T cell clones stimulated with insolubilized anti-CD3 mAb; assay type: cell-based, human; settings: for levels of IFN-?: 12 CD4+ clones, insolubilized anti-CD3 mAb, p<0.03 vs absence of RLX (3.6±0.98 ng/ml)
Description: To generate T cell clones, PBMC from normal subjects were seeded under limiting dilution conditions (0.3 cell/well) in six round-bottom microwell plates containing […] (6000 rad) allogeneic PBMC (as feeder cells) and PHA (1% vol/vol) in a final volume of 0.2 ml complete medium supplemented with 20 U/ml IL-2 and 10% FCS. Growing microcultures where then supplemented, at weekly intervals, with 20 U/ml IL-2 and 10^5 irradiated feeder cells. The phenotype distribution of T cell clones was assessed by flow cytometer-analysis.
(§1) To quantitate cytokine production in supernatants of TT-specific shortterm T cell lines and established T cell clones, […] were cultured in the presence of 20 ng/ml PMA plus 100 ng/ml anti-CD3 mAb. After 36 h culture, cell-free supernatants were collected, filtered, and stored in aliquots at −70° C. until used. Determination of IFN-? was performed by a commercial ELISA (Biosource International, Camarill, Calif.). […] Values of the cytokine content 5 SD over those of control supernatants obtained by stimulation of irradiated feeder cells alone were regarded as positive.
The two curves shown in FIG. 2 relate to two CD4^+ T cell clones stimulated with immobilised anti-CD3 antibody in the presence or in the absence of different concentrations of RLX for 36 h. […] Total RNA was extracted as described herein after. 1?g of RNA was reversed transcribed and cDNA were amplified and then subjected to PCR amplification with primers for IFN-? and IL4 as discussed more in detail below.
To provide unequivocal evidence of the direct effect of RLX on T cells, the activity of RLX on the IFN-? mRNA expression and IFN-? production by established T cell clones was examined. To this end, 12 CD4^+ T cells clones showing a Th0-like profile (production of both IFN-? and IL-4) were cultured in the absence of any other cell type and stimulated with insolubilized anti-CD3 mAb in the presence or absence of RLX. […] The levels of IL-4 produced by the same CD4+T cell clones were not altered by the presence of RLX.

[2] = test system: adherent cell-enriched fractions of PBMC (monocytes/APC); experiment: IL-12 and IFN-? release by adherent cell-enriched fractions of PBMC stimulated with TT; assay type: cell-based, human; settings: stimulated 5 days with TT, absence vs presence of RLX
[3] = test system: TT-specific short-term T cell lines from PBMC; experiment: Cytokine production by TT-specific short-term T cell lines expanded with or without RLX; assay type: cell-based, human
Description: TT-specific short-term T cell lines were generated from PBMC of TT-vaccinated normal donors according to a technique described in M. P. Piccinni et al <<Progesterone favors the development of human T helper cells producing Th2-type cytokines and promotes both IL-4 production and membrane CD30 expression in established TH1 cell clones>>, in J. Immmunol., 1995, 155: 128-133.
Briefly, 10^5 PBMC in 2 ml RPMI 1640 medium supplemented with 2 mM L-glutamine, 2×10^−5M 2-ME and 5% human serum (complete medium) were stimulated in 24-well flat-bottom plates for 5 days with the antigen (0.2?g/ml TT) in the absence or in the presence of RLX at concentrations of 10^−10, 10^−9, 10^−8, 10^−7 and 10^−6 M. Human IL-2 (20 U/ml) was then added and cultures continued for another 9 days. Viable T blasts were resuspended in complete medium and tested for their antigen specificity. To this end, 2×10^4 T blasts were seeded in microplates and cocultured for 48 h with irradiated (6000 rad) autologous PBMC (5×10^4) in the presence of medium alone or 0.1 ? g/ml TT, respectively. After a 16-h pulse with 0.5 ?Ci [^3H]thimidine, cultures where harvested and radioactivity measured by liquid scintillation. The phenotype distribution of TT-specific T cells was assessed by flow cytometer analysis.
as §1
On the other hand, no effect of RLX dilution can be observed on the production of IL-4.

sensitized guinea pigs = settings: RLX treatment; cited from earlier work
[4] = test system: established CD4+ T cell clones; experiment: RT-PCR of IFN-? and IL-4 mRNA in established CD4+ T cell clones; assay type: cell-based, human; settings: two clones, 10^−8 M RLX vs absence
Description: To induce cytokine mRNA expression in established T cell clones for RNA extraction 2×10^5 T blasts from each clone were cultured with insolubilized anti-CD3 (1?g/ml). After 12 h, pellets were washed four times with PBS at pH 7.2 and kept frozen until used. Total RNA was extracted using Ultraspec RNA Isolation kit (Biotex Laboratories, Inc. Houston, Tex., USA). […] Following extraction, 1 ?g of RNA was reverse transcribed by M-MLV reverse transcriptase (Gibco-BRL, Gaithersburg, Md., USA). All cDNA were amplified with primers for ?-actin to test the quality of cDNA and then subjected to PCR amplification with primers for IFN-? and IL-4. In each PCR reaction a positive control and a negative control (without cDNA as template to exclude contamination) were included. PCR analysis was carried out in a DNA thermal cycler (Idaho Technology, Idaho Falls, ID, USA). […] The size of the amplified products was evaluated by comparison with molecular weight markers run in parallel lanes.
The intensity of the bands for ?-actin obtained by RT-PCR was measured in all the samples to confirm that the same quantities of total RNA were reverse transcribed. In addition, the intensity of the bands for IFN-? obtained by PCR amplification (MIMIC and samples) and by Southern blot was also measured. […]

[5] = FIG. 1, mean values, cultures with antigen plus 200 U/ml IL-12 as printed
[6] = expanded in presence vs absence of RLX

relaxin [RLX]
increase of IFN-? mRNA (competitive PCR, image analysis) (CD4+ T cell clone; T cell clone no. 2, 10^−8 M RLX vs absence): approximately tenfold increase | IFN-? mRNA amount (competitive PCR) (CD4+ T cell clone; T cell clone no. 2, presence of 10^−8 M RLX, absence of RLX 4.1×10^−3): 5×10^−2 attomol/? I | total skin score (PSS patients; PSS patients, control phase trial): improvement | tolerability (PSS patients; RLX treatment compared with administration of IFN-?): better tolerated | levels of IFN-? ([1]; 10^−7 M RLX): 5.87±1.63 ng/m | levels of IFN-? ([1]; 10^−8 M RLX): 8.20 ± 2.27 ng/mL | levels of IL-4 ([1]; same 12 CD4+ T cell clones, presence vs absence of RLX): not altered | concentration of IFN-? in supernatants [2]: no significant differences | concentration of IL-12 in supernatants [2]: no significant differences | production of IFN-? in TT-specific T cell lines as a function of RLX concentration (FIG. 1) [3, 5]: increases with the concentration of RLX | production of IL-4 in TT-specific T cell lines as a function of RLX concentration (FIG. 1) [3, 5]: no effect | production of IFN-? in TT-specific T cells ([3]; expanded in presence of RLX at 10^−9, 10-8 and 10^−7 M vs absence of RLX): significantly higher | production of IL-4 in TT-specific T cells [3, 6]: no significant differences | production of IL-5 in TT-specific T cells [3, 6]: no significant differences | production of IL-6 in TT-specific T cells [3, 6]: no significant differences | allergic asthma-like reaction (sensitized guinea pigs): reduced | bronchial hyperresponsiveness (sensitized guinea pigs): reduced | IFN-? mRNA expression (RT-PCR) [4]: higher levels | IL-4 mRNA levels (RT-PCR) [4]: the same
